Reference: publication PMC12096674 (Journal of Enzyme Inhibition and Medicinal Chemistry, 2025)
Read-outs that look alike come from different tables or passages of the source.

Tests used:
M^pro of four alpha-CoVs = details: read-out: IC50 values against all four alpha-CoVs
[1] = system: M^pro of ten high-risk CoVs
HCoV-OC43 M^pro = details: read-out: IC50 HCoV-OC43, cited from earlier work
HCoV-HKU1 M^pro = details: read-out: IC50 HCoV-HKU1; cited from earlier work
HCoV-NL63 M^pro = details: read-out: IC50 HCoV-NL63, cited from earlier work

## Cn1cnc(Cn2c(=O)[nH]/c(=N\c3cc4cn(C)nc4cc3Cl)n(Cc3cc(Cl)c(F)cc3Oc3ncc(C(F)(F)F)s3)c2=O)n1 [Compound 14, (E)-6-((6-chloro-2-methyl-2H-indazol-5-yl)imino)-1-(5-chloro-4-fluoro-2-((5-(trifluoromethyl)thiazol-2-yl)oxy)benzyl)-3-((1-methyl-1H-1,2,4-triazol-3-yl)methyl)-1,3,5-triazinane-2,4-dione]
M^pro of four alpha-CoVs
  IC50: < 300 nM

## Cc1cncc(-n2c(=O)[nH]/c(=N\c3cc4cn(C)nc4cc3Cl)n(Cc3cc(C#N)ccc3Sc3ccc(Cl)s3)c2=O)c1 [Compound 24, (E)-3-((6-((6-Chloro-2-methyl-2H-indazol-5-yl)imino)-3-(5-methylpyridin-3-yl)-2,4-dioxo-1,3,5-triazinan-1-yl)methyl)-4-((5-chlorothiophen-2-yl)thio)benzonitrile]
M^pro of four alpha-CoVs
  IC50: < 300 nM

## Cn1cc2cc(/N=c3\[nH]c(=O)n(Cc4ccc[nH]c4=O)c(=O)n3Cc3cc(Cl)c(F)cc3Oc3ccc(C#N)s3)c(Cl)cc2n1 [Compound 25, (E)-5-(4-chloro-2-((6-((6-chloro-2-methyl-2H-indazol-5-yl)imino)-2,4-dioxo-3-((2-oxo-1,2-dihydropyridin-3-yl)methyl)-1,3,5-triazinan-1-yl)methyl)-5-fluoro-phenoxy)thiophene-2-carbonitrile]
M^pro of four alpha-CoVs
  IC50: < 600 nM
[1]; read-out: IC50 against ten high-risk CoVs
  IC50: < 600 nM
[1]; read-out: IC50 values for six of the ten CoVs
  IC50: < 100 nM

## Cn1cnc(Cn2c(=O)[nH]/c(=N\c3cc4cn(C)nc4cc3Cl)n(Cc3cc(F)c(F)cc3F)c2=O)n1 [S-217622 (1)]
HCoV-OC43 M^pro; reported compound
  IC50: […]
HCoV-HKU1 M^pro
  IC50: […]
HCoV-NL63 M^pro; reported compound
  IC50: […]
